According to patent US11254649B2, “Crystalline fumarate salt of (S)-[3,4-difluoro-2-(2-fluoro-4-iodophenylamino)phenyl] [3-hydroxy-3-(piperidin-2-yl) azetidin-1-yl]-methanone” (Exelixis, Inc., priority 2015, dated 2022):
“Also recorded” adds a separate entry of the source. Counter-ions that a name gives are not always drawn.

Experiments:
Assay type in all cases: physicochemical
[1] = Storage stability at 25° C/0% RH and 25° C/90% RH; settings: 25° C/0% relative humidity (RH) and 25° C/90% RH
[2] = Polymorphism screening / solid form stability and conversion; settings: for thermodynamic stability / conversion of solid form: polymorphism screening, approximately 3000 crystallization experiments
Protocol: The amorphous form is non-crystalline and hygroscopic. […] In approximately 3000 crystallization experiments performed during polymorphism screenings, no additional polymorphic form was observed. Based on DSC measurements as well as temperature-controlled XRPD, no conversion of the polymorphic form is observable under heating until melting occurs. […] DSC thermograms were recorded using a Mettler-Toledo instrument (DSC820/821e/1; FRS05 sensor). Approximately 2-6 mg of the sample were placed in aluminum pans and sealed with aluminum lids. Lids were automatically pierced prior to heating. Generally, samples under nitrogen were heated at a rate of 10 K/min to a maximum of 250° C.

[3] = Intrinsic dissolution rate (USP <1088>); settings: for Intrinsic Dissolution Rate: pellet 0.5 cm^2, 0.05M Acetate Buffer pH = 4.5, 37 C., 100 RPM, UV at 278 nm
Description: For each intrinsic dissolution measurement, a pellet was produced from the crystalline Form A or the amorphous form sample using an applied load of approximately 15 kN into a flat disk (surface area=0.5 cm^2). After compaction, each pellet was checked by XRPD to confirm that no polymorphic transformation had occurred during the pelleting process. [table] Batches of Form A and the amorphous form (from freeze-drying) were used to determine the intrinsic dissolution rate of both solid forms. Intrinsic dissolution allows the characterization of different crystal forms by exposing a constant surface area to the dissolution medium.

[4] = Hygroscopicity by dynamic moisture sorption/desorption (DVS); settings: 25° C.; for reversible weight gain or loss: between 0% RH and 90% RH; for conversion during dynamic vapor sorption experiments: time scale of standard DVS experiments, 0-90% RH; for hygroscopicity classification: weight increase 0% RH to 90% RH
Protocol: Moisture sorption/desorption data were collected on a DVS-1/DVS-HT/DVS-intrinsic (SMS Surface Measurements Systems) moisture balance system. The sorption/desorption isotherms were measured stepwise in a range of 0% RH (relative humidity) to 90% RH at 25° C. A weight change of <0.002 mg/min was chosen as a criterion to switch to the next level of RH (with a maximum equilibration time of 24 hours, if the weight criterion was not met). The data were corrected for the initial moisture content of the samples; that is, the weight after drying the sample at 0% RH was taken as the zero point. The hygroscopicity of a given substance is characterized by the increase in mass when the RH was raised from 0% RH to 90% RH as given in Table 7. [table]

[5] = Water solubility; settings: at 25° C.
[6] = listed as crystalline fumarate salt of Compound I

| SMILES | change in assay, purity, moisture and dissolution [1] | thermal stability by DSC ([2]; DSC) | thermodynamic stability / conversion of solid form [2] | thermodynamic stability / conversion of solid form [2, 6] | Intrinsic Dissolution Rate [3] | reversible weight gain or loss [4] | conversion during dynamic vapor sorption experiments [4] | hygroscopicity classification [4] | hygroscopicity classification [4, 6] | solubility [5] | conversion in slurry experiment ([2]; 2-propanol/water 88:12, 20° C.) | thermodynamic stability / conversion of solid form ([2]; listed as The amorphous form) | intrinsic dissolution rate relative to crystalline Form A ([3]; amorphous form vs Form A) | reversible weight gain or loss ([4]; listed as the amorphous from) | hygroscopicity classification ([4]; listed as The amorphous form) | hygroscopicity classification ([4]; listed as the amorphous from) |
| --- | --- | --- | --- | --- | --- | --- | --- | --- | --- | --- | --- | --- | --- | --- | --- | --- |
| O=C(c1ccc(F)c(F)c1Nc1ccc(I)cc1F)N1CC(O)([C@@H]2CCCCN2)C1 [Form A, crystalline fumarate salt of (S)-[3,4-difluoro-2-(2-fluoro-4-iodophenylamino)phenyl] [3-hydroxy-3-(piperidin-2-yl)azetidin-1-yl]-methanone] | no change | stable up to the melting point of 239 °C | thermodynamically stable form | thermodynamically stable | 0.0756 mg*cm−2*min−1 | 0.1% | no conversion was observed | non-hygroscopic; also recorded: nonhygroscopic | non-hygroscopic | 1600 µg/mL | – | – | – | – | – | – |
| O=C(c1ccc(F)c(F)c1Nc1ccc(I)cc1F)N1CC(O)([C@@H]2CCCCN2)C1 [the amorphous form] | – | – | converts to crystalline Form A | – | 2.6996 mg*cm−2*min−1 | – | no conversion was observed | hygroscopic | – | – | converted rapidly into Form A | convert to Form A by heating and by solvent mediated phase transition in water | approximately 35 times | 12.1% | hygroscopic | hygroscopic |
